Measurements from patent publication US5126356A, “Piperidine compounds” (Adir et Compagnie, priority 1989, dated 1992).
Counter-ions that a name gives are not always drawn. Each block holds one molecule with its values, some of them ahead of it.

Experiments:
Beta adrenergic β = assay: Binding to neurotransmitter receptors: beta adrenergic ([3H] DHA); details: read-out: K0.5
human LDL's = assay: Oxidative modification of human LDL's by copper sulphate (MDA production); assay type: biochemical; details: for IC50: read-out: IC50 (reduction of MDA production by 50%), Cu2+ (copper sulphate 5×10^-6 M), 24 hours
Experimental: Human LDL's are incubated for 24 hours in the presence of copper sulphate (5×10^-6 M) and in the absence or in the presence of the test compounds (10^-7 M to 10^-4 M).
After incubation, the peroxidation of the LDL's is evaluated by agar gel electrophoresis and by the formation of one of the products of lipid peroxidation: malondialdehyde (MDA) (Parthasarathy S., Young S. G., Witztum J. L., Pittman R. C. and Steinberg D.; J. Clin. Invest. 77, 641-644, 1986).

cardiac cells [1] = assay: Oxidative necrosis of cardiac cells induced by hypoxanthine/xanthine oxidase (α-HBDH release); assay type: cell-based, rat; details: for activity at 10 µM / activity at 1 µM / activity at 0.1 µM / inhibition at 1 µM: Rattus norvegicus, Cardiomyocyte, 4 h; for activity at 10 µM / activity at 1 µM / activity at 0.1 µM / necrosis index: XO + HX, control XO + HX = 100, mean ±SD; for activity at 10 µM / activity at 1 µM / activity at 0.1 µM: read-out: necrosis index; for inhibition at 1 µM: from 10^-6 M, read-out: reduction of oxidative necrosis of the cardiomyocytes; for necrosis index: 240 min
Experimental: Cardiac cells of newly born rats are used between the 5th and 7th day following culturing. Oxidative necrosis is induced by the enzymatic production system of hypoxanthine free radicals (HX, 1 mM) and xanthine oxidase (XO, 10 mU/ml). The necrosis is evaluated 4 hours after the addition of XO/HX by measuring by spectrophotometry the cytosolic α-hydroxybutyrate dehydrogenase (α-HBDH) activity released into the supernatant liquor. Two reference molecules (Probucol, vitamin E) and two molecules representative of the present invention (corresponding to Examples 13 and 19) were tested. The cells are treated with the molecules 16 hours and 1 hour before the start of the experiment after renewal of the medium. At the start of the experiment, the treatment is repeated one last time.
The necrosis index 100 corresponds to the release of 46.7±5.3% of the cytosolic content of α-HBDH into the supernatant liquor in 4 hours.
The results are expressed as the mean ±SD (2<n≤4, 3 to 4 repetitions per experiment).

type L calcium channels [2] = assay: Binding: displacement of [3H] D888 at the Ca2+ channel; details: read-out: K0.5 (50% of specifically fixed radioactivity displaced)
type L Ca^2+ channel = target: T1, type L Ca^2+ channel (Rattus norvegicus, UniProt P22002); assay: Inhibition of 45Ca2+ influx through the Ca2+ channel in A7 r5 cells; assay type: cell-based; details: 45Ca2+ influx, A7 r5 cells; read-out: K0.5 (50% of 45Ca2+ influx inhibited)
T1 construct: cell lines from the aorta of newly born rats; host or cells: A7 r5

type L calcium channels [3] = target: T2, type L calcium channels (Oryctolagus cuniculus, UniProt P07293); assay: Binding: displacement of [3H] PN 200-110 at the Ca2+ channel
T2 construct: microsomal fractions enriched with type L calcium channels; from tissue; host or cells: microsomal fractions

cardiac cells [4] = assay: Protection of cardiac cells from necrosis induced by intracellular acidosis (αHBDH release); assay type: cell-based, rat; details: Rattus norvegicus, Cardiomyocyte
Experimental: a) Cardiac cells: the cardiac cells are prepared from the hearts of newly born (3 days) Wistar rats in accordance with the technique of RENAUD JF., MEAUX JP., ROMEY G., SCHMID A., LAZDUNSKI M., Activation of the voltage-dependent Ca^2+ channels in rat heart cells by dihydropyridine derivative--Biochem. Biophys. Res. Commun., 125, 405-412 (1984).
The cardiomyocytes are isolated from the ventricles by enzymatic dissociation and cultured at 185,000 cells/cm^2. The cells are kept at 37° C. under an air/CO2 atmosphere (95 V/5 V) saturated with water. The cardiomyocytes are used between the 3rd and 8th day following culturing.
Intracellular acidosis is induced in accordance with the conditions published by RENAUD JF., Internal pH Na^+ and Ca^2+ regulation by trimetazidine during cardiac cell acidosis. Cardiovasc. Drugs and Ther., 1, 667-686 (1988) in the presence or absence of the products to be tested. Cellular necrosis is evaluated by measuring by spectrophotometry using the Boerhinger 124800 kit the kinetics of the release of a cytosolic enzyme α-hydroxybutyrate dehydrogenase (αHBDH) into the extracellular medium.
The signal measured corresponds to the amplitude of the necrosis induced by the acidosis. The values are the means ±SD. The number of experiments is indicated in parentheses.

Alpha adrenergic α2 = assay: Binding to neurotransmitter receptors: alpha2 adrenergic ([3H] Rauwolscine); details: α2, [3H] Rauwolscine; read-out: K0.5
[5] = read-out: amplitude of the necrosis induced by the acidosis

T2 sequence (P07293 whole entry): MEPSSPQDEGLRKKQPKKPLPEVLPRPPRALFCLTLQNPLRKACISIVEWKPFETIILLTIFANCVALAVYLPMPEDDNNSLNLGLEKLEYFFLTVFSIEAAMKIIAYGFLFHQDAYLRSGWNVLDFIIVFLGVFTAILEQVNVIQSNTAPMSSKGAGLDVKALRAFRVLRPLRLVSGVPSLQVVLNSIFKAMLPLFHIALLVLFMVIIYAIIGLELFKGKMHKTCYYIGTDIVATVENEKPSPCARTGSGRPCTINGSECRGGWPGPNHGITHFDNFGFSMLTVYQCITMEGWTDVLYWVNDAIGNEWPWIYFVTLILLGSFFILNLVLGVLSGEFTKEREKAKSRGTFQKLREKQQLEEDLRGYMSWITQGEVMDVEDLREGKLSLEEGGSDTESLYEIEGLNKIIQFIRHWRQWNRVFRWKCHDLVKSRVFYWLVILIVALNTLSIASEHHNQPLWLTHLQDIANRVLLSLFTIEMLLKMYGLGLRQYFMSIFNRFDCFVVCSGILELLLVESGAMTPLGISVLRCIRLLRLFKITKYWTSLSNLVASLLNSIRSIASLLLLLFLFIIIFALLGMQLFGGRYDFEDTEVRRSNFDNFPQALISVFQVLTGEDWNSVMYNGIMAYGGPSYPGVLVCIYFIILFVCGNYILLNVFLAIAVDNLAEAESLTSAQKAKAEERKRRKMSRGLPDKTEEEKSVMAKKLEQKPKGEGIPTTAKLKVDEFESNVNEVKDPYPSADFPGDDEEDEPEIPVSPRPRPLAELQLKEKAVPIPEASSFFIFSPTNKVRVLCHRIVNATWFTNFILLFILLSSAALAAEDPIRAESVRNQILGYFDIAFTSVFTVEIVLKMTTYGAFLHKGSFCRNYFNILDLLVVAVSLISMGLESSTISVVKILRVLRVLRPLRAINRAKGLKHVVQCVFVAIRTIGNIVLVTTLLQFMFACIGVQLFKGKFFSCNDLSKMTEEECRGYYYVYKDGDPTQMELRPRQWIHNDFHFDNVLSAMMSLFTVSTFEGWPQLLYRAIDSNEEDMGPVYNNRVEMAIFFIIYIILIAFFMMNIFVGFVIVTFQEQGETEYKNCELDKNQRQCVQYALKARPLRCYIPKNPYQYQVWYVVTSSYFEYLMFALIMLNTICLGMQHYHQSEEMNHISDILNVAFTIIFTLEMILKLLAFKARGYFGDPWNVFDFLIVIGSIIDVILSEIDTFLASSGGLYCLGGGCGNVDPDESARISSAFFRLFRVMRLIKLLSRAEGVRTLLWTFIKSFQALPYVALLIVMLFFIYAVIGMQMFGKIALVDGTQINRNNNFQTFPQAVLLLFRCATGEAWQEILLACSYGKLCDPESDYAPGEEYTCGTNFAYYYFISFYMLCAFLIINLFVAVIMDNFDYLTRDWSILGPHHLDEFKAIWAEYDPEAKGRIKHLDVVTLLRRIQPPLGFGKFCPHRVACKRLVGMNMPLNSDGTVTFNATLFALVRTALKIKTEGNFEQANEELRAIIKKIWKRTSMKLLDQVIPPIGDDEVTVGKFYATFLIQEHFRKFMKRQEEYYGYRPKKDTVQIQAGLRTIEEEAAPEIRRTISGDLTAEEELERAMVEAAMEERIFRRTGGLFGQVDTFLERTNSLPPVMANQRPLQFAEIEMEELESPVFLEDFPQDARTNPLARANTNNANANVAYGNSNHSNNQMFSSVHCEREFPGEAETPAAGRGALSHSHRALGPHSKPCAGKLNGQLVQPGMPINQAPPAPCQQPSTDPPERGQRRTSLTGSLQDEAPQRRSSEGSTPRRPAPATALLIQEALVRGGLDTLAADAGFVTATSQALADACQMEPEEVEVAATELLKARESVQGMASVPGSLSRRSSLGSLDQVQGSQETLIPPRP
T2 sequence (P13806 27-960 partner limits assumed): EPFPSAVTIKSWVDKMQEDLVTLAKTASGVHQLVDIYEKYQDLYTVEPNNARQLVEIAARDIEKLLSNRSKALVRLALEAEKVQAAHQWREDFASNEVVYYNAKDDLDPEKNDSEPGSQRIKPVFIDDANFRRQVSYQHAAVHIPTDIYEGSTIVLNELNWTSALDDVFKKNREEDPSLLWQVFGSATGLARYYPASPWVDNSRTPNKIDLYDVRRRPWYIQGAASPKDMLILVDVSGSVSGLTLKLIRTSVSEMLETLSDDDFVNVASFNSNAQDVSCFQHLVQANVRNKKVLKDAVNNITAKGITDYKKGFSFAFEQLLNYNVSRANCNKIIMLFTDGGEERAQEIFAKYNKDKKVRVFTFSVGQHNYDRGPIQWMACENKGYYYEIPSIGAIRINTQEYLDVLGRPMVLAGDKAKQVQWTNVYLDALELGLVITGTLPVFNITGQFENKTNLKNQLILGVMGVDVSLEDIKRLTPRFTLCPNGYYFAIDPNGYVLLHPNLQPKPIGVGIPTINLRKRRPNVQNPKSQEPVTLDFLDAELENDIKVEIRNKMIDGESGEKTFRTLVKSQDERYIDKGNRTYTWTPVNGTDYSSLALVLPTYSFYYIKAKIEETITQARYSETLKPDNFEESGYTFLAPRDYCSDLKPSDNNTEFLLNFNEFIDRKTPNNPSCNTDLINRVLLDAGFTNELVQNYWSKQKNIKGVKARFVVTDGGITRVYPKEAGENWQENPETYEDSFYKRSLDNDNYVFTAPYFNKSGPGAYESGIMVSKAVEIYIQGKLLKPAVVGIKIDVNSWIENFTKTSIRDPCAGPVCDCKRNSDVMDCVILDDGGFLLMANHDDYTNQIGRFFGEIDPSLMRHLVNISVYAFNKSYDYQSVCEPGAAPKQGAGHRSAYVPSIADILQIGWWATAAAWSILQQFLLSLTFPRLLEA
T2 sequence (P13806 961-1106 partner limits assumed): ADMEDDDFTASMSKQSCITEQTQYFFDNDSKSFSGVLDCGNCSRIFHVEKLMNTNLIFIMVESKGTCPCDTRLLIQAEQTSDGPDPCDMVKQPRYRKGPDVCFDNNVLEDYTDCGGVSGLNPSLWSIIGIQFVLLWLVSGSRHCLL
T2 sequence (P19517 whole entry partner): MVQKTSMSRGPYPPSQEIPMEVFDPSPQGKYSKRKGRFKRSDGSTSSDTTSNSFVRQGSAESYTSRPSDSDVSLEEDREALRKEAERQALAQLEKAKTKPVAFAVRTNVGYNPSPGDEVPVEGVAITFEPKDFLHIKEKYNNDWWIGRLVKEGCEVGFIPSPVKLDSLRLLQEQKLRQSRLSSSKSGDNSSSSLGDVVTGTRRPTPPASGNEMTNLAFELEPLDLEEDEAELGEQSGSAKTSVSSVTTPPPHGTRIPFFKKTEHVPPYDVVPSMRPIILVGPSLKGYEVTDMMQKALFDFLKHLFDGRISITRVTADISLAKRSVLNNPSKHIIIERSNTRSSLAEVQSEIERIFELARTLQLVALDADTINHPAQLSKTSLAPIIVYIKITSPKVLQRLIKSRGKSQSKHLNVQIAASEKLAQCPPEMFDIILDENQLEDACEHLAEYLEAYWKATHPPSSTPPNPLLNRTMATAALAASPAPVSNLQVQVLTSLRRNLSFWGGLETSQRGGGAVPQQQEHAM
T2 sequence (P19518 whole entry partner): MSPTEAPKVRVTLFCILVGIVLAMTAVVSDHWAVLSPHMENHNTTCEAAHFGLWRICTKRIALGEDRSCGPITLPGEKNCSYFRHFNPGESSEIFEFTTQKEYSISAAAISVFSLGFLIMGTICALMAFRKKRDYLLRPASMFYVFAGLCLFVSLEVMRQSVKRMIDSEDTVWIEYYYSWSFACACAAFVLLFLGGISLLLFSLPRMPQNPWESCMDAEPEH

Molecule: C=CCc1ccccc1OCC(O)CNC(C)C (centres unmarked) [Alprenolol]
IC50 (Beta adrenergic β): 2.1 nM

Molecule: COc1ccc(CSC2CCN(CCCc3cc(C(C)(C)C)c(O)c(C(C)(C)C)c3)CC2)c(OC)c1OC [Example 15, 4-(2,3,4-trimethoxybenzylthio)-1-[3-(3,5-di-tert.-butyl-4-hydroxyphenyl)propyl]piperidine]
IC50 (human LDL's): 3000 nM

Molecule: COc1ccc(CSC2CCN(CC(O)CSc3cc(C(C)(C)C)c(O)c(C(C)(C)C)c3)CC2)c(OC)c1OC (centres unmarked) [Example 16, 4-(2,3,4-trimethoxybenzylthio)-1-[3-(3,5-di-tert.-butyl-4-hydroxyphenylthio)-2-hydroxypropyl]piperidine]
IC50 (human LDL's): 3000 nM

Molecule: COc1ccc(CSC2CCN(CC(O)COc3cc(C(C)(C)C)c(O)c(C(C)(C)C)c3)CC2)c(OC)c1OC (centres unmarked) [Example 17, 4-(2,3,4-trimethoxybenzylthio)-1-[3-(3,5-di-tert.-butyl-4-hydroxyphenoxy)-2-hydroxypropyl]piperidine]
IC50 (human LDL's): 2000 nM

Molecule: COc1ccc(CSC2CCN(CCCOc3cc(C)c(O)c(C)c3C)CC2)c(OC)c1OC [Example 19, 4-(2,3,4-trimethoxybenzylthio)-1-[3-(2,3,5-trimethyl-4-hydroxyphenoxy)propyl]piperidine]
protection of human LDL's with respect to oxidative modification (in words) (human LDL's; copper sulphate): greater ability
IC50 (human LDL's): 300 nM
protection of cardiac cells with respect to oxidative necrosis (in words) (cardiac cells [1]): markedly superior to the anti-oxidant reference products
activity at 10 µM (cardiac cells [1]; 10^-5 M): 7.9 ± 4.1%
activity at 1 µM (cardiac cells [1]; 10^-6 M): 38.4 ± 13.7%
activity at 0.1 µM (cardiac cells [1]; 10^-7 M): 86 ± 11.5%
inhibition at 1 µM (cardiac cells [1]): ≥ 50%

Molecule: COc1ccc(CSC2CCN(CCCCCOc3cc(C(C)(C)C)c(O)c(C(C)(C)C)c3)CC2)c(OC)c1OC [Example 21, 4-(2,3,4-trimethoxybenzylthio)-1-[5-(3,5-di-tert.-butyl-4-hydroxyphenoxy)pentyl]piperidine]
IC50 (human LDL's): 800 nM

Molecule: CC(C)(Sc1cc(C(C)(C)C)c(O)c(C(C)(C)C)c1)Sc1cc(C(C)(C)C)c(O)c(C(C)(C)C)c1 [Probucol, reference compound]
IC50 (human LDL's): 3000 nM
activity at 10 µM (cardiac cells [1]; 10^-5 M): 68 ± 0.9%
activity at 1 µM (cardiac cells [1]; 10^-6 M): 95 ± 1.7%

Molecule: COc1ccc(CN2CCNCC2)c(OC)c1OC [Trimetazidine, 2 HCl, trimetazidine dihydrochloride, reference compound]
IC50 (type L calcium channels [2]): > 100000 nM
IC50 (Beta adrenergic β): > 100000 nM
IC50 (type L calcium channels [3]): > 100000 nM
activity at 20 µM (cardiac cells [4]; [5]): 94.6%
activity at 100 µM (cardiac cells [4]; [5]): 75.8%
activity at 500 µM (cardiac cells [4]; [5]): 58.3%
inhibition at 500 µM (cardiac cells [4]; read-out: protection of cell population subjected to intracellular acidosis): 42%

Molecule: COC(=O)[C@@H]1[C@H]2C[C@H]3c4[nH]c5ccccc5c4CCN3C[C@@H]2CC[C@@H]1O [Yohimbine, reference compound]
IC50 (Alpha adrenergic α2): 31 nM

Molecule: vitamin E [reference compound]
IC50 (human LDL's): > 100000 nM
necrosis index (cardiac cells [1]; 10^-5 M, 10 µM): 54.9 ± 11.3
necrosis index (cardiac cells [1]; 10^-6 M, 1 µM): 87.6 ± 5.7
necrosis index (cardiac cells [1]; 10^-7 M, 0.1 µM): 97.1 ± 2.6

Further lines, with some results ahead:

IC50 (human LDL's): 3000 nM
Molecule: COc1ccc(CSC2CCN(Cc3cc(C(C)(C)C)c(O)c(C(C)(C)C)c3)CC2)c(OC)c1OC [Example 13, 4-(2,3,4-trimethoxybenzylthio)-1-(3,5-di-tert.-butyl-4-hydroxybenzyl)piperidine]
protection of cardiac cells with respect to oxidative necrosis (in words) (cardiac cells [1]): markedly superior to the anti-oxidant reference products
activity at 10 µM (cardiac cells [1]; 10^-5 M): 16.1 ± 5.6%
activity at 1 µM (cardiac cells [1]; 10^-6 M): 52.4 ± 18.2%
activity at 0.1 µM (cardiac cells [1]; 10^-7 M): 75.7 ± 19.7%
inhibition at 1 µM (cardiac cells [1]): ≥ 50%

IC50 (human LDL's): 1000 nM
Molecule: COc1ccc(CSC2CCN(CCCOc3cc(C(C)(C)C)c(O)c(C(C)(C)C)c3)CC2)c(OC)c1OC [Example 14, 4-(2,3,4-trimethoxybenzylthio)-1-[3-(3,5-di-tert.-butyl-4-hydroxyphenoxy)propyl]piperidine]

IC50 (human LDL's): 2000 nM
Molecule: COc1ccc(CSC2CCN(CCCSc3cc(C(C)(C)C)c(O)c(C(C)(C)C)c3)CC2)c(OC)c1OC [Example 18, 4-(2,3,4-trimethoxybenzylthio)-1-[3-(3,5-di-tert.butyl-4-hydroxyphenylthio)propyl]piperidine]

IC50 (human LDL's): 1000 nM
Molecule: COc1ccc(CSC2CCN(CCCCCSc3cc(C(C)(C)C)c(O)c(C(C)(C)C)c3)CC2)c(OC)c1OC [Example 20, 4-(2,3,4-trimethoxybenzylthio)-1-[5-(3,5-di-tert.butyl-4-hydroxyphenylthio)pentyl]piperidine]

IC50 (type L calcium channels [2]): 2.5 nM
IC50 (type L Ca^2+ channel): 23 nM
Molecule: COc1cccc(CCN(C)CCCC(C#N)(c2ccc(OC)c(OC)c2)C(C)C)c1 (centres unmarked) [Example D888, reference compound]
